Data set [1] relates to Mycobacterium tuberculosis. The data set can be described thus: Antitubercular activity against dormant stage of Mycobacterium tuberculosis H37Ra assessed as cell viability after 12 days by XTT reduction menadione assay. The following applies: 288 h. It counts as functional. (In general: Tetrazolium assays rely on reduction of a dye to a coloured formazan, in cell work by metabolically active cells.)

Data set [2] can be described thus: Antibacterial activity against active stage of Mycobacterium bovis BCG ATCC 35743 assessed as cell viability after 8 days by nitrate reductase assay. As to conditions: Mycobacterium tuberculosis variant bovis BCG, ATCC 35743, 192 h. It counts as functional, Mycobacterium bovis BCG str. ATCC 35743.
Data set [3] can be described thus: Selectivity index, ratio of GI50 for human MCF7 cells to MIC90 for active stage of Mycobacterium bovis BCG ATCC 35743. It counts as toxicity, cell-based. The following applies: read-out: Selectivity Index.
Data set [4] can be described thus: Cytotoxicity against human THP1 cells incubated for 1 to 11 days by MTT assay. It is filed as cell-based, THP-1.
The nature of data set [5]: Antibacterial activity against dormant stage of Mycobacterium bovis BCG ATCC 35743 assessed as cell viability after 12 days by nitrate reductase assay. The following applies: Mycobacterium tuberculosis variant bovis BCG, ATCC 35743, 288 h. It is filed as functional, Mycobacterium bovis BCG str. ATCC 35743.
Data set [6] can be described thus: Selectivity index, ratio of GI50 for human THP1 cells to MIC90 for active stage of Mycobacterium tuberculosis H37Ra. It counts as toxicity, cell-based, THP-1. As to conditions: read-out: Selectivity Index.
Data set [7] in a line: Selectivity index, ratio of GI50 for human A549 cells to MIC90 for active stage of Mycobacterium tuberculosis H37Ra. It counts as toxicity, cell-based. As to conditions: read-out: Selectivity Index.
Data set [8] is described as follows: Cytotoxicity against human HCT116 cells incubated for 1 to 11 days by MTT assay. It counts as cell-based, HCT-116.
For data set [9], the system named is Mycobacterium tuberculosis. The experiment in a line: Antitubercular activity against active stage of Mycobacterium tuberculosis H37Ra assessed as cell viability after 8 days by XTT reduction menadione assay. As to conditions: 192 h. It counts as functional.
A short description of data set [10]: Selectivity index, ratio of GI50 for human THP1 cells to MIC90 for active stage of Mycobacterium bovis BCG ATCC 35743. It is filed as toxicity, cell-based, THP-1. As to conditions: read-out: Selectivity Index.
Data set [11] can be described thus: Cytotoxicity against human MCF7 cells incubated for 1 to 11 days by MTT assay. It is filed as cell-based.
Data set [12] in a line: Selectivity index, ratio of GI50 for human A549 cells to MIC90 for active stage of Mycobacterium bovis BCG ATCC 35743. It counts as toxicity, cell-based. The following applies: read-out: Selectivity Index.
Data set [13] is described as follows: Selectivity index, ratio of GI50 for human HCT116 cells to MIC90 for active stage of Mycobacterium tuberculosis H37Ra. It is filed as toxicity, cell-based, HCT-116. The following applies: read-out: Selectivity Index.
The nature of data set [14]: Selectivity index, ratio of GI50 for human MCF7 cells to MIC90 for active stage of Mycobacterium tuberculosis H37Ra. It is filed as toxicity, cell-based. The following applies: read-out: Selectivity Index.
The nature of data set [15]: Cytotoxicity against human A549 cells incubated for 1 to 11 days by MTT assay. It counts as cell-based. The following applies: A549 cells.
Data set [16] in a line: Selectivity index, ratio of GI50 for human HCT116 cells to MIC90 for active stage of Mycobacterium bovis BCG ATCC 35743. It is filed as toxicity, cell-based, HCT-116. As to conditions: read-out: Selectivity Index.

In general, MIC90 refers to the lowest concentration that inhibits either 90% of growth or 90% of the strains tested, depending on the study. As a reminder, the GI50 is the concentration giving 50% growth inhibition.

In brackets after ≈: the same amount, converted by molar mass.

On to `CCCCCCCc1cc2c(=O)n(CCCBr)cnc2s1`, for which the MIC90 is 18.5 µg/mL (≈ 49.8 µM) in data set [1], 6.3 µg/mL (≈ 17 µM) in data set [2], 9.37 µg/mL (≈ 25.2 µM) in [5] and 17.5 µg/mL (≈ 47.2 µM) in [9]. Moreover, the selectivity ratio came to 3 in [3]; 6 in data set [6]; 2 in data set [7]; 16 in [10]; 5 in data set [12]; 6 in data set [13]. Moreover, the selectivity ratio in data set [14] came to 1; in data set [16], 16. Moreover, the GI50 in data set [4] was greater than 100 µg/mL; in data set [8], greater than 100 µg/mL; in data set [11] it was 19.7 µg/mL (≈ 53 µM); in data set [15], 34.1 µg/mL (≈ 92 µM).

`CCCCCCCCCCc1cc2c(=O)n(CCO)cnc2s1`: the MIC90 in data set [1] was determined as 15 µg/mL (≈ 44.6 µM); in [2], 21.4 µg/mL (≈ 63.7 µM); in data set [5] it was 23.4 µg/mL (≈ 69.6 µM); in data set [9] it was 6.7 µg/mL (≈ 19.9 µM). In addition, the selectivity ratio in [3] is greater than 5; in data set [6] it was 15; in data set [7], 15; in [10], 5; in [12] it was greater than 5; in data set [13] it was 15. Further, the results for the selectivity ratio in data set [14] and in data set [16] were 15 and 5, respectively. Moreover, the GI50 in [4], in data set [8], in data set [11] and in data set [15] was greater than 100 µg/mL throughout.

As for `CCCCCCCCCCc1cc2c(=O)n(CCBr)cnc2s1`, the MIC90 in [1] was determined as 35.2 µg/mL (≈ 88.2 µM); in [2], 2.29 µg/mL (≈ 5.73 µM); in data set [5], 3.35 µg/mL (≈ 8.39 µM); in data set [9] it was 24.6 µg/mL (≈ 61.5 µM). In addition, the selectivity ratio in data set [3] worked out at 9; in [6] it was 4; in data set [7], 1; in data set [10] it was 44; in data set [12], 15; in data set [13], 4. The selectivity ratio turned out to be 1 in [14] and 44 in [16]. Further, the concentration for 50% growth inhibition (GI50) is greater than 100 µg/mL in [4], greater than 100 µg/mL in data set [8], 20.5 µg/mL (≈ 51.4 µM) in [11] and 35.1 µg/mL (≈ 87.8 µM) in [15].

As for `CO[C@H]1/C=C/O[C@@]2(C)Oc3c(C)c(O)c4c(O)c(c(/C=N/N5CCN(C)CC5)c(O)c4c3C2=O)NC(=O)/C(C)=C\C=C\[C@H](C)[C@H](O)[C@@H](C)[C@@H](O)[C@@H](C)[C@H](OC(C)=O)[C@@H]1C` [RIFAMPIN], the MIC90 in data set [1] was determined as 0.75 µg/mL (≈ 0.911 µM); in data set [2], 0.45 µg/mL (≈ 0.547 µM); in data set [5], 0.81 µg/mL (≈ 0.984 µM); in [9], 0.51 µg/mL (≈ 0.62 µM). For the same compound, the GI50 in data set [4], in data set [8], in [11] and in data set [15] was greater than 100 µg/mL throughout. Besides, the selectivity ratio in data set [6] was 196; in data set [7], 196; in [10] it was 222; in data set [13], 196; in data set [14] it was 196; in data set [16], 222.

Regarding `CCCCCCc1cc2c(=O)n(CC3CC3)cnc2s1`, the MIC90 in data set [1] came to 42.7 µg/mL (≈ 147 µM); in data set [2] it was 1.37 µg/mL (≈ 4.72 µM); in data set [5] it was 2.34 µg/mL (≈ 8.06 µM); in data set [9] it was 45.9 µg/mL (≈ 158 µM). For the same compound, the selectivity ratio in data set [3] was 18; in data set [6], 2; in [7], 2; in data set [10], 73; in data set [12], greater than 73; in data set [14], 1. For the same compound, the selectivity ratio in data set [16] is 13. Moreover, the GI50 is greater than 100 µg/mL in data set [4], 17.6 µg/mL (≈ 60.7 µM) in data set [8], 24.8 µg/mL (≈ 85.5 µM) in data set [11] and greater than 100 µg/mL in data set [15].

Take `CC(=O)O[C@H]1C(=O)[C@@]2(C)[C@H]([C@H](OC(=O)c3ccccc3)[C@]3(O)C[C@H](OC(=O)[C@H](O)[C@@H](NC(=O)c4ccccc4)c4ccccc4)C(C)=C1C3(C)C)[C@]1(OC(C)=O)CO[C@@H]1C[C@@H]2O` [PACLITAXEL]: the results for the GI50 in data set [4], in [8] and in [11] were 0.137 µg/mL (≈ 0.161 µM), 0.026 µg/mL (≈ 0.0304 µM) and 0.0048 µg/mL (≈ 0.00562 µM), respectively.
